Where a name gives a salt, the structure may show the parent alone. Read-outs that look alike come from different tables or passages of the source.
What was measured:
[1] = test system: Ba/F3-FGFR3-transfected cells; experiment: Ba/F3-FGFR3 (plus IL3) cellular proliferation assay, counterscreen with 10 ng/ml murine IL3; format: cell-based; details: for IC50: read-out: BAF3-FGFR3 (PLUS IL3) pIC50 (converted); for BAF3-FGFR3 (PLUS IL3) pIC50: plus IL3 (10 ng/ml murine IL3, counterscreen)
Procedure, shortened: (§1)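 With or without 10 ng/ml murine IL3, FGFR3-dependent Ba/F3 cells were treated 24 h with compound, then viability was gauged by Alamar Blue fluorescence after 4 h (ex 540/em 590 nm).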

KDR (h) = KDR (h) (Homo sapiens, UniProt P35968); experiment: KDR (VEGFR2) (enzymatic assay), TR-FRET; format: biochemical; details: read-out: VEGFR 2 (KDR) pIC50 (converted)
Procedure, shortened: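 Low-ATP (3 μM) TR-FRET kinase assay using 500 nM Btn-Flt3 peptide and 150 ng/ml enzyme, run 2 h at room temperature with 6 mM MnCl2 and 0.1 mM Na3VO4. Signal from Eu-anti-P-Tyr/SA-XL-665 is recorded in RFU.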

[2] = biological target: T1, Ba/F3-FGFR1-transfected cells (Homo sapiens, UniProt P11362); experiment: Ba/F3-FGFR1 (minus IL3) cellular proliferation assay, Alamar Blue; format: cell-based
T1 construct: BAF3-FGFR1 (MIN IL3) pIC50; other: minus IL3
Procedure, shortened: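 Viability of transfected Ba/F3-FGFR1 cells (20000 per well, RPMI-1640 with 10% FBS and 2 mM L-glutamine) was scored by resazurin-based Alamar Blue reduction over 4 h, after 24 h treatment with compound at 37 °C under 5% CO2.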

[3] = biological target: T2, Ba/F3-KDR-transfected cells (Homo sapiens, UniProt P35968); experiment: Ba/F3-KDR (minus IL3) cellular proliferation assay, Alamar Blue; format: cell-based
T2 construct: BAF3-KDR (MIN IL3) pIC50; other: minus IL3
Procedure, shortened: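 Cells grown with test compound at 37° C and 5% CO2 for 24 hours were given a resazurin/ferricyanide/ferrocyanide reagent for 4 hours before fluorescence (540/590 nm) was recorded.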

FGFR4 (h) = FGFR4 (h) (Homo sapiens, UniProt P22455); experiment: FGFR4 (enzymatic assay), TR-FRET; format: biochemical; details: FGFR 4 pIC50, enzymatic assay
FGFR3 (h) = FGFR3 (h) (Homo sapiens, UniProt P22607); experiment: FGFR3 (enzymatic assay), TR-FRET; format: biochemical; details: read-out: FGFR 3 pIC50 (converted)
Description: Time-Resolved Fluorescence Resonance Energy Transfer (TR-FRET) signal (ex340 nm.

FGFR1 (h) = FGFR1 (h) (Homo sapiens, UniProt P11362); experiment: FGFR1 (enzymatic assay), TR-FRET; format: biochemical; details: read-out: FGFR 1 pIC50 (converted)
[4] = test system: Ba/F3-FGFR1-transfected cells; experiment: Ba/F3-FGFR1 (plus IL3) cellular proliferation assay, counterscreen with 10 ng/ml murine IL3; format: cell-based; details: for IC50: read-out: BAF3-FGFR1 (PLUS IL3) pIC50 (converted); for BAF3-FGFR1 (PLUS IL3) pIC50: plus IL3 (10 ng/ml murine IL3, counterscreen)
Procedure, shortened: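 Proliferation read-out: resazurin-based Alamar Blue fluorescence (540/590 nm) after 4 h, following 24 h compound treatment of 20000 Ba/F3-FGFR1 cells per well in 10% FBS RPMI at 37° C. IL3 counterscreen used the same protocol plus 10 ng/ml murine IL3.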

[5] = test system: Ba/F3-KDR-transfected cells; experiment: Ba/F3-KDR (plus IL3) cellular proliferation assay, counterscreen with 10 ng/ml murine IL3; format: cell-based; details: for IC50: read-out: BAF3-KDR (PLUS IL3) pIC50 (converted); for BAF3-KDR (PLUS IL3) pIC50: plus IL3 (10 ng/ml murine IL3, counterscreen)
Protocol: Ba/F3-KDR (Minus IL3 or Plus IL3) (Cellular Proliferation Assay)
In a 384 well plate, 100 n1 of compound dilution in DMSO was sprayed before adding 50 μl cell culture medium (phenol red free RPMI-1640, 10% FBS, 2 mM L-Glutamine and 50 μg/ml Gentamycin) containing 20000 cells per well of Ba/F3-KDR-transfected cells. Cells were put in an incubator at 37° C. and 5% CO2. After 24 hours, 10 μl of Alamar Blue solution (0.5 mM K3Fe(CN)6, 0.5 mM K4Fe(CN)6, 0.15 mM Resazurin and 100 mM Phosphate Buffer) was added to the wells, incubated for 4 hours at 37° C. and 5% CO2 before RFU's (Relative Fluorescence Units) (ex. 540 nm., em. 590 nm.) were measured in a fluororescence plate reader.
As a counterscreen the same experiment was performed in the presence of 10 ng/ml murine IL3.

FGFR2 (h) = FGFR2 (h) (Homo sapiens, UniProt P21802); experiment: FGFR2 (enzymatic assay), TR-FRET; format: biochemical; details: enzymatic assay, read-out: FGFR 2 pIC50 (converted)
Procedure, shortened: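 At low ATP (0.4 μM), enzyme activity of human FGFR2 (150 ng/ml) toward biotinylated Flt3 substrate (500 nM) was followed with test compound present. Reactions ran in 50 mM HEPES pH 7.5, 6 mM MnCl2, 1 mM DTT, 0.1 mM Na3VO4, 0.01% Triton-X-100, 1% DMSO.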

[6] = biological target: T3, Ba/F3-FGFR3-transfected cells (Homo sapiens, UniProt P22607); experiment: Ba/F3-FGFR3 (minus IL3) cellular proliferation assay, Alamar Blue; format: cell-based
T3 construct: BAF3-FGFR3 (MIN IL3) pIC50; other: minus IL3
Procedure, shortened: as §1

[7] = biological target: Ba/F3-FGFR4-transfected cells (Homo sapiens, UniProt P22455); experiment: Ba/F3-FGFR4 cellular proliferation assay, Alamar Blue; format: cell-based
Procedure, shortened: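 Here, cells seeded at 20000 per well were treated 24 hours with compound, then given a 4-hour Alamar Blue incubation at 37° C before RFU measurement at ex. 540 nm and em. 590 nm.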

[8] = average values if tested multiple times

FGFR3 (h), sequence (P22607 23-806): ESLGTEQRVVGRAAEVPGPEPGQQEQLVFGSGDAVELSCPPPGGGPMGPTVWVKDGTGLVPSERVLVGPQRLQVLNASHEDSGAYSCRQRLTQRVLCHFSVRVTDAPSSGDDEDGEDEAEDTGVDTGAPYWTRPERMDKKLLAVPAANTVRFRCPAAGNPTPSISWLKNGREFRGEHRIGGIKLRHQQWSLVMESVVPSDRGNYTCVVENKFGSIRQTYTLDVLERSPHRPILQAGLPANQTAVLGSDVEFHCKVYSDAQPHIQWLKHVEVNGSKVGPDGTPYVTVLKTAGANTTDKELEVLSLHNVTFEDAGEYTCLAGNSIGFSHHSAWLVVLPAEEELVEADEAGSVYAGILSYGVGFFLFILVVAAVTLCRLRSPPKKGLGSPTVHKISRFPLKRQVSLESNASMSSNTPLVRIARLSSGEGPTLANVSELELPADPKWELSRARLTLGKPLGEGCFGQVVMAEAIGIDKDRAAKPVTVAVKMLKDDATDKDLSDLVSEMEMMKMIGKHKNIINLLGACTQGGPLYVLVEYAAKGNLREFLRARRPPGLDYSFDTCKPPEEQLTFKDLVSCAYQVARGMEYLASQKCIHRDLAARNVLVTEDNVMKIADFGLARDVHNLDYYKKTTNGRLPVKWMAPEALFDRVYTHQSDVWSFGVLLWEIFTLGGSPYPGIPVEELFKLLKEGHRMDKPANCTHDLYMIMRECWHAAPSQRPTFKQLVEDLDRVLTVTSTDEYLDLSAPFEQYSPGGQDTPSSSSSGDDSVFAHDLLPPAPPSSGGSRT
FGFR2 (h), sequence (P21802 22-821): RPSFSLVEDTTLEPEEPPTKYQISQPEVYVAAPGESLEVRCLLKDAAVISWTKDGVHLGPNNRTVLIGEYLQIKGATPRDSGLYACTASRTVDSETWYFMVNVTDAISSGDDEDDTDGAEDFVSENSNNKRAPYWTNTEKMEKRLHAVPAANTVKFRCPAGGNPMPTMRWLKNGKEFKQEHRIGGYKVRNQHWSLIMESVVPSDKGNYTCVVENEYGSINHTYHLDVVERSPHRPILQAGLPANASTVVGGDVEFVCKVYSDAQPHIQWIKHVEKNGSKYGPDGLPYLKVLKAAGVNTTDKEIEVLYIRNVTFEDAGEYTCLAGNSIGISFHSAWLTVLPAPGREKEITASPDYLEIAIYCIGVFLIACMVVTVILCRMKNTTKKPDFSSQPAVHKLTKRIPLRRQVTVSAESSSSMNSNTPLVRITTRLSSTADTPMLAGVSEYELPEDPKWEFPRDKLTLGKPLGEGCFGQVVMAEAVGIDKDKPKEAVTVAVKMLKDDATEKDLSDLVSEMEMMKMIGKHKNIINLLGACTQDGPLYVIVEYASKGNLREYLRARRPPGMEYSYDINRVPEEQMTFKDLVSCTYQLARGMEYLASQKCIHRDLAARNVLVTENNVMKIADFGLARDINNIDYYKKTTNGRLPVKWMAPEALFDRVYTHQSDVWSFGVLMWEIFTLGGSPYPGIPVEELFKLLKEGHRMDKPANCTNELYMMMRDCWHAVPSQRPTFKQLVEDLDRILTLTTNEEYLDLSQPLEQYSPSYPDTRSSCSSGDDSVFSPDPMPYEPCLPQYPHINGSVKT
T3 sequence (P22607 whole entry, change not shown): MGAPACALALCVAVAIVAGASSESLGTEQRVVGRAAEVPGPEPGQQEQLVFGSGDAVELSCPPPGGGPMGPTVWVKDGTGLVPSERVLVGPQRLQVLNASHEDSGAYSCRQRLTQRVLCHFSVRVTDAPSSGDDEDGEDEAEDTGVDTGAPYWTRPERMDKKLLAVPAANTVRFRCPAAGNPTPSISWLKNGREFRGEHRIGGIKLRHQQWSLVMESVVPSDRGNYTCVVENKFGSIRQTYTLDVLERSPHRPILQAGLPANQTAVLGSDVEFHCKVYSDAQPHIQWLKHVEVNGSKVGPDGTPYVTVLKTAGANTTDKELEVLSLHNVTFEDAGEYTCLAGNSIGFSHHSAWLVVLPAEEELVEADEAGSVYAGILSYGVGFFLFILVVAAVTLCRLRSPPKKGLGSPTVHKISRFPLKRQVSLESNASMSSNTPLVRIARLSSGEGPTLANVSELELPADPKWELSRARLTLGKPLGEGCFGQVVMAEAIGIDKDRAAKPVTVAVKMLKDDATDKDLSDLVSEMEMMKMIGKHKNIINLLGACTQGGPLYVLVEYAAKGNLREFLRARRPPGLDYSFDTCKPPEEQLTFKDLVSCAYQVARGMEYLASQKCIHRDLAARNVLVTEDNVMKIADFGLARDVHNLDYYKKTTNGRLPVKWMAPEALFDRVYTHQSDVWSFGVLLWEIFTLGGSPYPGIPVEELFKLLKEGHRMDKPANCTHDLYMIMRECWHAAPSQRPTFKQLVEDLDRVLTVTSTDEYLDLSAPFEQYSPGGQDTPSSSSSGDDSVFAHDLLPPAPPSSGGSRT
Ba/F3-FGFR4-transfected cells, sequence (P22455 whole entry, change not shown): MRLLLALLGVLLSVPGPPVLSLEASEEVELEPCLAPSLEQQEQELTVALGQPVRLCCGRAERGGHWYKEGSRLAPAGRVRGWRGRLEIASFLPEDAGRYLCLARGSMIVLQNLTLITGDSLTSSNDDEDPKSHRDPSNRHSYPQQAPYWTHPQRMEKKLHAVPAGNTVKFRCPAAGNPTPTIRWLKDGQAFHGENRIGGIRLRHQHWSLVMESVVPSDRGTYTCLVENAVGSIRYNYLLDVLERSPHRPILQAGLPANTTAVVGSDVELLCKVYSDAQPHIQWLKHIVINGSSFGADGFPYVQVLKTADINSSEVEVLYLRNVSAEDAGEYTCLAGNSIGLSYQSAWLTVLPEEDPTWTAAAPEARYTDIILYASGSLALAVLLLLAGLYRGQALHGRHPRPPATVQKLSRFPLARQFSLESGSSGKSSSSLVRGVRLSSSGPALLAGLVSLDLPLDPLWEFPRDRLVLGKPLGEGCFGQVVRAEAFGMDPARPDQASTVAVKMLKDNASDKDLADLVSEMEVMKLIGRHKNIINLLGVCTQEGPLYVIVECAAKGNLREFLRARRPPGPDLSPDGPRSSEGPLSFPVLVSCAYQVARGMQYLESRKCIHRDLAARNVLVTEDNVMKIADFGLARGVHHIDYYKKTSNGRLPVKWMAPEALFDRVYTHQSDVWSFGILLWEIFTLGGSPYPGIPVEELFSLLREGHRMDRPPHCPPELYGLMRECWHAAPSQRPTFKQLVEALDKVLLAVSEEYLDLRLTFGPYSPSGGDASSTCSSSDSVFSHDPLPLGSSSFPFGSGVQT
FGFR4 (h), sequence (P22455 22-802): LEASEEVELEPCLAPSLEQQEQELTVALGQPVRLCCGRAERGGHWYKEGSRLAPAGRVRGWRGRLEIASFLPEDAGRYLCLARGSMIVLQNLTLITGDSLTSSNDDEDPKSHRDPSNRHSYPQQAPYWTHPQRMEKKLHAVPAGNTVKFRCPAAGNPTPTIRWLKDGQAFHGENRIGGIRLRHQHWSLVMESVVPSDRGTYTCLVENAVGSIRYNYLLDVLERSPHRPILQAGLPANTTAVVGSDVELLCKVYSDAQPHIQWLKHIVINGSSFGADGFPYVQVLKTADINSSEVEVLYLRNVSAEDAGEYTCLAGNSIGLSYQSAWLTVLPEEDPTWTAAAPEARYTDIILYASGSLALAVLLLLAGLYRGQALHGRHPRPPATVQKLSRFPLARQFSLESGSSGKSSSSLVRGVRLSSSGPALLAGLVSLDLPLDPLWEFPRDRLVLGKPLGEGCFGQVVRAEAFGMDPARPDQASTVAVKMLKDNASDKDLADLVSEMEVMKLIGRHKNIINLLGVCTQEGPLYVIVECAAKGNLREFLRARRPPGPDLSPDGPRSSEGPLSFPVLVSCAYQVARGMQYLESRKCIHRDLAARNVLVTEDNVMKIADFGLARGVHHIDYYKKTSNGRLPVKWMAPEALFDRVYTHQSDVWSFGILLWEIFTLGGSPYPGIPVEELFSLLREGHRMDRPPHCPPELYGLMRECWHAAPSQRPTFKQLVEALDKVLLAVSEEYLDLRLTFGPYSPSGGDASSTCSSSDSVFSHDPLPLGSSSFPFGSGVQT
FGFR1 (h), sequence (P11362 22-822): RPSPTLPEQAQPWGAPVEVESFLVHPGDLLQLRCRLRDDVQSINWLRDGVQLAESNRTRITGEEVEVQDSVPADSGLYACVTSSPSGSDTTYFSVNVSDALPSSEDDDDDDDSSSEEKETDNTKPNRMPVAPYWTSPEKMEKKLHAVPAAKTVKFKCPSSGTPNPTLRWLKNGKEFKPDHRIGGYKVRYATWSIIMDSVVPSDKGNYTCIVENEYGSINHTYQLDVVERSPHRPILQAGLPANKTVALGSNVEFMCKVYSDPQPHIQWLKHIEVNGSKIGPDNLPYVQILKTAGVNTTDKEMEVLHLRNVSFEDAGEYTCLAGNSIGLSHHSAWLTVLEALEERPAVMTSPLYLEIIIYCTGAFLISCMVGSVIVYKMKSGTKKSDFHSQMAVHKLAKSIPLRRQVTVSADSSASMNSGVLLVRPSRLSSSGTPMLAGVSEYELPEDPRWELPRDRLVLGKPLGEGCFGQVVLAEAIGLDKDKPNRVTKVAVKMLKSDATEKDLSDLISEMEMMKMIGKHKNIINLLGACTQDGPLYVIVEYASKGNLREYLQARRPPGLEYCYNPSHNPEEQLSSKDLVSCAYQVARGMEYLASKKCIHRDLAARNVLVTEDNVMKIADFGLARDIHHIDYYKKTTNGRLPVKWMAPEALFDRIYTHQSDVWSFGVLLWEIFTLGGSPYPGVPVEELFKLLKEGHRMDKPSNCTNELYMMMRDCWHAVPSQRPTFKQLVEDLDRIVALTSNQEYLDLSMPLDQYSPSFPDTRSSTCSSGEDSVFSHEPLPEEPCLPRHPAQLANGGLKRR

| Compound | IC50 [1] [nM] | IC50 (KDR (h)) [nM] | BAF3-FGFR1 (MIN IL3) pIC50 [2] | BAF3-KDR (MIN IL3) pIC50 [3] | IC50 (FGFR4 (h)) [nM] | IC50 (FGFR3 (h)) [nM] | IC50 (FGFR1 (h)) [nM] | IC50 [4] [nM] | IC50 [5] [nM] | IC50 (FGFR2 (h)) [nM] | BAF3-FGFR3 (MIN IL3) pIC50 [6] | BAF3-FGFR4 pIC50 [7] | BAF3-FGFR3 (PLUS IL3) pIC50 [1] | BAF3-FGFR1 (PLUS IL3) pIC50 [4] | BAF3-KDR (PLUS IL3) pIC50 [5] | IC50 (KDR (h); [8]) [nM] | IC50 (FGFR4 (h); [8]) [nM] | IC50 (FGFR3 (h); [8]) [nM] | IC50 (FGFR1 (h); [8]) [nM] | IC50 (FGFR2 (h); [8]) [nM] |
| --- | --- | --- | --- | --- | --- | --- | --- | --- | --- | --- | --- | --- | --- | --- | --- | --- | --- | --- | --- | --- |
| COc1cc(OC)c(F)c(N(Cc2nnc(NCCO)o2)c2ccc3ncc(-c4cnn(C)c4)nc3n2)c1 [Compound 283] | > 10000 | 105 | 5.18 | <5 | 21.4 | 5.13 | ~7.08 | > 10000 | > 10000 | 5.13 | 5.26 | <5 |  |  |  |  |  |  |  |  |
| COc1cc(OC)c(F)c(N(CC2CCC(=O)N2C)c2ccc3ncc(-c4cnn(C)c4)nc3n2)c1 (stereo not drawn) [Compound 161] |  | 126 | 6.26 | <5 | 37.2 | 6.92 | 20 |  |  | 10 | 6.08 | 5.78 | <5 | <5 | <5 |  |  |  |  |  |
| COc1cc(OC)c(F)c(N(CC2CCC(=O)N2)c2ccc3ncc(-c4cnn(C)c4)nc3n2)c1F (stereo not drawn) [Compound 48] |  |  | 8.00 | 6.03 |  |  |  |  |  |  | ~7.94 | 6.89 | <5 | <5 | <5 | 24.5 | 2.19 | 1.7 | 1.26 | 3.24 |
| COc1cc(OC)c(F)c(N(Cc2ncc[nH]2)c2ccc3ncc(-c4cnn(C)c4)nc3n2)c1 [23-lactate salt] |  |  | 8.29 | 6.83 |  |  |  |  |  |  | ~8.14 | 8.13 | <5 | <5 | <5 | 6.61 | 1.1 | 0.955 | 0.501 | 1.38 |
| COc1cc(/N=c2\ccc3ncc(-c4cnn(C)c4)nc3n2CCCN2CCCC2=O)cc(OC)c1 [Compound 133] | > 10000 | 5.89 | 7.30 | 6.39 | 1.58 | 0.724 | 1 | > 10000 | > 10000 | 1.23 | ~7.58 | 6.73 |  |  |  |  |  |  |  |  |
| COc1cc(OC)cc(N(CC(O)C(F)(F)F)c2ccc3ncc(-c4cnn(C)c4)nc3n2)c1 (single isomer, unassigned) [Compound 34] |  |  | 7.18 | <5 |  |  |  |  |  |  | 6.97 | 6.64 | <5 | <5 | <5 | 331 | 7.08 | 1.35 | 3.55 | 4.57 |
| COc1cc(OC)c(F)c(N(CC(O)COC(C)C)c2ccc3ncc(-c4cnn(C)c4)nc3n2)c1 (single isomer, unassigned) [Compound 78] |  |  | 7.59 | 6.13 |  |  |  |  |  |  | 7.70 | 7.03 | <5 | <5 | <5 | 15.1 | 2.51 | 2.34 | 2.4 | 2.75 |
| COc1cc(OC)c(F)c(N(CC2CCOC2)c2ccc3ncc(-c4cnn(C)c4)nc3n2)c1 (single isomer, unassigned) [Compound 172] |  | 45.7 | 6.54 | 5.35 | ~15.8 | 3.02 | 3.72 |  |  | 4.47 | ~7.06 | 6.33 | <5 | <5 | <5 |  |  |  |  |  |
| COc1cc(/N=c2\ccc3ncc(-c4cnn(C)c4)nc3n2CCNC(C)=O)c(F)c(OC)c1 [Compound 243] | > 10000 | 15.1 | 7.85 | 6.00 | 1.95 | 1.32 | 0.977 | > 10000 | > 10000 | 1.62 | ~8.13 | 7.14 |  |  |  |  |  |  |  |  |
